From US20240197702A1, “ANTISEPTIC-ANTIBIOTIC GUMBOS EFFECTIVE AGAINST GRAM-NEGATIVE PATHOGENS” (priority 2020, published 2024)
Counter-ions that a name gives are not always drawn.

Columns and labels:
[1] = according to Hansch et al (1995); cited from earlier work
[2] = tested on: HeLa cells; assay: MTT cytotoxicity assay of octenidine/carbenicillin GUMBOS; assay type: cell-based; conditions: HeLa; for Relative toxicity to cervical cells (in words): after 15 min of incubation
Description: (§1) Cytotoxicity assay: To determine cell viability, a colorimetric MTT dye assay (Promega Corp., Madison, WI, USA) was used, employing the manufacturer's instructions, as an indicator of cytotoxicity of GUMBOS towards healthy (HeLa) cells. Hela cells (ATCC CCL-2) grown in DMEM-reduced serum supplemented with 10% FBS were plated at a density of 1% 10^5 cells/mL (10^4 cells/well) in 96-well plates. Concentrations of therapeutic agents up to 500 μM (1% MeOH or DMSO) were doubly diluted in cell culture media and transferred to seeded cells. Cells were incubated for 15 min and 60 min at 37° C. in a 5% CO2 atmosphere. Cells treated with medium alone served as a negative control. At the end of the incubation period, 15 μL of MTT was added to each well and incubation continued for another hour. Absorbance was measured at 570 nm in a microplate spectrophotometer. All experiments were performed in quadruplicate. Cell viability as a percentage was determined as the ratio between treated cells and untreated (control) cells (taken as 100%).

[3] = as above; assay type: cell-based; conditions: human
Description: as §1

[4] = tested on: N. gonorrhoeae clinical isolates; assay: Kirby-Bauer disc diffusion against N. gonorrhoeae clinical isolates; assay type: cell-based, Neisseria gonorrhoeae; conditions: three clinical isolates, 20-24 h
Description: (§2) Antimicrobial susceptibility testing: Kirby-Bauer disc diffusion susceptibility tests were used to determine zones of inhibition (ZOIs) for N. gonorrhoeae (ATCC 49226) and three clinical isolates obtained from Louisiana State University Health Sciences Center New Orleans HIV Outpatient Clinic. Kirby-Bauer disc diffusion is one of the CDC's preferred methods of testing the susceptibility of N. gonorrhoeae. Testing was performed according to CLSI recommended procedures. In this susceptibility test, 6 mm diameter blank paper discs were impregnated with known quantities of antimicrobial drug followed by evaporation of solvent; however, ceftriaxone, azithromycin and doxycycline antimicrobial susceptibility discs were purchased from Thermo Fisher Scientific. Impregnated discs were placed onto prepared nutrient agar plates that were inoculated with N. gonorrhoeae to give a confluent lawn of growth. Suspensions of these various strains were prepared in accordance with a 1.0 McFarland standard. Inoculated agar plates were incubated for 20-24 h at 37° C. in a 5% CO2 atmosphere.
(§3) Blank discs were loaded with 50 nmol of GUMBOS, respective constituent compounds and equivalent stoichiometric unreacted mixtures of octenidine and carbenicillin that are equimolar to the purchased ceftriaxone discs (Oxoid™, Thermo Fisher). After 20-24 h incubation, diameters of ZOIs were measured using a ruler. […] Antibacterial activity was improved for octenidine when chloride ions were exchanged for the antibiotic. […] This effect was not seen, however, for an unreacted mixture of the two drugs for either N. gonorrhoeae (ATCC 49226) or clinical isolates. The ZOIs of octenidine/carbenicillin were also larger than or equal to azithromycin and doxycycline ZOIs for N. gonorrhoeae (ATCC 49226). […] This is significant as resistance rates for azithromycin have increased worldwide. Among 57 countries reporting on azithromycin susceptibility, 28 (49%) reported>5% resistance. […] Ceftriaxone produced large ZOIs as the clinical population still remains susceptible to it in the USA (only 0.2% of isolates had elevated resistance to ceftriaxone in 2017).

[5] = MTT cytotoxicity assay of ceftriaxone-based GUMBOS; assay type: cell-based; conditions: human, HeLa cells, read-out: Acute cytotoxicity (IC50)
Description: Cytotoxicity Assay of GUMBOS: Cytotoxicity of GUMBOS, unreacted mixtures, and antiseptics towards healthy cells were evaluated using the MTT assay, a colorimetric dye assay, according to manufacturer's instructions. […] Stock solutions of antimicrobial agents in cell medium (1% MeOH) were diluted to a known working concentration, doubly diluted, and transferred to seeded cells. […] Cells treated with only DMEM were used as a negative control. After incubation, 15 μL of MTT were added to each well and cells were further incubated for an hour. Sodium dodecyl sulfate dimethylformamide solution was added after this additional incubation time in order to dissolve the purple formazan crystals. Cell viability was quantified at 570 nm using a microplate spectrophotometer (Eppendorf PlateReader AF2200, Hauppauge, NY). Cell viability as a percentage was determined as the ratio between treated cells and untreated (control) cells taken as 100%.

[6] = tested on: N. gonorrhoeae ATCC 49226; assay: MIC by micro-broth dilution against N. gonorrhoeae ATCC 49226; assay type: cell-based, Neisseria gonorrhoeae; conditions: Neisseria gonorrhoeae, ATCC49226; ATCC 49226, micro-broth dilution, 20-24 hours
Description: (§4) Minimum Inhibitory Concentrations of GUMBOS against N. gonorrhoeae: Clinical isolates of N. gonorrhoeae and N. gonorrhoeae ATCC 49226 were obtained from Louisiana State University Health Sciences Center New Orleans HIV Outpatient Clinic. Minimum inhibitory concentrations (MICs) of GUMBOS, constituent parent drugs, azithromycin, and unreacted mixtures were determined using micro-broth dilution in 96-well plates. […] Stock solutions were diluted to a known working concentration and 100 μL were added to the first row of the plate. For susceptibility testing of N. gonorrhoeae, media was prepared according to methods reported by Wade and […]. Euro. Microbiol. Soc. Microbiol. […] This liquid medium allowed dense growth of N. gonorrhoeae for use in broth dilution tests. Protein-free liquid media (100 μL) were added to each well and two-fold dilutions were performed. The antibiotic containing wells were inoculated with an equal volume of bacterial inoculum matching a 0.5 McFarland standard. […] The lowest concentration of antibiotic that prevents growth is the MIC.

[7] = tested on: N. gonorrhoeae ATCC 49226; assay: Kirby-Bauer disc diffusion against N. gonorrhoeae ATCC 49226; assay type: cell-based, Neisseria gonorrhoeae; conditions: for Zone size, mm (±SD): ATCC 49226, disc diffusion, 20-24 h
Description: as §2, §3

[8] = tested on: clinical isolates of N. gonorrhoeae; assay: MIC by micro-broth dilution against N. gonorrhoeae clinical isolates; assay type: cell-based, Neisseria gonorrhoeae; conditions: Neisseria gonorrhoeae
Description: as §4

[9] = Parallel Artificial Membrane Permeability Assay (PAMPA); assay type: in vitro ADME
Description: Predictive intestinal permeability: PAMPA was employed as an in vitro model of passive, transcellular permeation. In this technique, a 96-well microtiter plate is used as a donor plate and a membrane/acceptor compartment coated with structured tri-layers of phospholipids is placed on top; this configuration is referred to as ‘sandwiched’. Known concentrations of octenidine/carbenicillin (100 μM in 1×PBS, 0.25% DMSO) were added to the donor plate while only buffer was placed in the acceptor plate. The assay was incubated for 5 h at room temperature and the acceptor plate was measured using a UV/Vis spectroscopy plate reader (Eppendorf PlateReader AF2200). Permeability coefficients (Pe) were calculated based on initial concentration in donor well (C0), concentration in donor well at 5 h (CD), concentration in acceptor well at 5 h (CA), volumes of donor (VD) and acceptor wells (VA), well filter area (A, 0.3 cm^2) and incubation time (t, 18000 s), as calculated using the relationship in Equation 1.

Structure (SMILES)	Log P [1]	Relative toxicity to cervical cells (in words) [2]	IC50 at 15 min [3] [µg/mL]	IC50 at 60 min [3] [µg/mL]	Zone size, mm (±SD) [4] [mm]	IC50 at 15 min ([5]; 15 min) [µM]	IC50 at 60 min ([5]; 60 min) [µM]	MIC [6] [µM]	Zone size, mm (±SD) [7] [mm]	MIC [8] [µM]	Permeability class [9]	Mean effective Pe (permeability coefficient) ([9]; 100 μM in 1×PBS, 0.25% DMSO, 5 h, room temperature)	Cytotoxicity towards cervical cells (in words) [2]	Combination effect on antibacterial activity ([7]; N. gonorrhoeae (ATCC 49226) and clinical isolates, disc diffusion)	Antibacterial activity relative to azithromycin ([7]; disc diffusion ZOIs)
[H]/N=C(\N/C(=N/[H])NCCCCCCNC(=N)NC(=N)Nc1ccc(Cl)cc1)Nc1ccc(Cl)cc1 [chlorhexidine]	0.08	–	–	–	–	–	–	–	–	–	–	–	–	–	–
CCCCCCCCN=c1ccn(CCCCCCCCCCn2ccc(=NCCCCCCCC)cc2)cc1 [Octenidine dihydrochloride, octenidine dihydrochloride]	–	most toxic	37.4 ± 2.8	16.1 ± 0.7	9 ± 0.3	55 ± 1.29	25.9 ± 1.17	3.1	9 ± 1	4.7 ± 1.8	–	–	–	–	–
CC1(C)S[C@@H]2[C@H](NC(=O)C(C(=O)[O-])c3ccccc3)C(=O)N2[C@H]1C(=O)[O-].CCCCCCCCNc1cc[n+](CCCCCCCCCC[n+]2ccc(NCCCCCCCC)cc2)cc1 [[OCT][CAR], octenidine/carbenicillin]	–	lower toxicity than the stoichiometric, unreacted mixture	–	–	37 ± 4	–	–	–	40 ± 0.6	–	high permeability (Pe values that are greater than 1.5% 10 cm/s are defined as high permeability)	3.78×10^−6 (±0.85) cm/s	non-toxic towards cervical cells	additive effect	bioequivalent to azithromycin
